Laboratory results published in patent publication US20110064775A1, “METALLO-ORGANIC SYSTEM FOR THE ENCAPSULATION AND RELEASE OF COMPOUNDS OF INTEREST, METHOD FOR OBTAINING SAME AND USES THEREOF” (CONSEJO SUPERIOR DE INVESTIGACIONES CIENTIFÍCAS, priority 2008, published 2011).
“Also recorded” adds a separate entry of the source.

Experiment: fluorescence emission spectrum of encapsulated versus free substance (integrity after encapsulation)
Type: physicochemical
Details: encapsulated vs free state
From the text: Both images have been obtained using an AxioObserver Z1M (Zeiss Microscope) optical microscope.
The scanning and fluorescence images have been taken using a Hitachi S-570 scanning microscope and an AxioObserver Z1M (Zeiss 25 Microscope) optical microscope, respectively. The fluorescence intensities have been obtained using an Applied Photophysics fluorometer with a Quantel pulsed laser.

COc1cccc2c1C(=O)c1c(O)c3c(c(O)c1C2=O)C[C@@](O)(C(=O)CO)C[C@@H]3O[C@H]1C[C@H](N)[C@H](O)[C@H](C)O1 [doxorubicin]
modification or degradation during the encapsulation process: has not been modified; also recorded: has not been modified or degraded
